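In this assay, cells in 96-well plates receive the compound at five concentrations for 48 hours. Endpoints are linearly interpolated between the surrounding concentrations. TGI is the concentration that stops growth completely.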
Experiments:
Experiment in all cases: inhibition of tumour cell growth, NCI panel, 48 h
TK-10 renal = test system: TK-10 renal
A549 NSCLC = test system: A549 NSCLC
SNB-75 CNS = test system: SNB-75 CNS
HOP-92 NSCLC = test system: HOP-92 NSCLC
COLO 205 colon = test system: COLO 205 colon
SK-MEL-2 melanoma = test system: SK-MEL-2 melanoma
NCI/ADR-RES ovarian = test system: NCI/ADR-RES ovarian
DU-145 prostate = test system: DU-145 prostate
UACC-257 melanoma = test system: UACC-257 melanoma
ACHN renal = test system: ACHN renal
SF-295 CNS = test system: SF-295 CNS
NCI-H522 lung = test system: NCI-H522 lung
MDA-N = test system: MDA-N
SNB-19 CNS = test system: SNB-19 CNS
MDA-MB-435 = test system: MDA-MB-435
SF-268 CNS = test system: SF-268 CNS
M14 melanoma = test system: M14 melanoma
NCI-H460 lung = test system: NCI-H460 lung
UACC-62 melanoma = test system: UACC-62 melanoma
OVCAR-5 ovarian = test system: OVCAR-5 ovarian
SK-OV-3 ovarian = test system: SK-OV-3 ovarian
K-562 leukemia = test system: K-562 leukemia
OVCAR-3 ovarian = test system: OVCAR-3 ovarian
HOP-62 NSCLC = test system: HOP-62 NSCLC
UO-31 renal = test system: UO-31 renal
U251 CNS = test system: U251 CNS
A498 renal = test system: A498 renal
CAKI-1 renal = test system: CAKI-1 renal
RPMI-8226 leukemia = test system: RPMI-8226 leukemia
NCI-H226 lung = test system: NCI-H226 lung
MALME-3M melanoma = test system: MALME-3M melanoma
HCC-2998 colon = test system: HCC-2998 colon
MCF7 breast = test system: MCF7 breast
OVCAR-4 ovarian = test system: OVCAR-4 ovarian
MDA-MB-231 breast = test system: MDA-MB-231 breast
786-0 renal = test system: 786-0 renal
PC-3 prostate = test system: PC-3 prostate
HCT-15 colon = test system: HCT-15 colon
SN12C renal = test system: SN12C renal
BT-549 breast = test system: BT-549 breast
SK-MEL-5 melanoma = test system: SK-MEL-5 melanoma
EKVX NSCLC = test system: EKVX NSCLC
T-47D breast = test system: T-47D breast
SK-MEL-28 melanoma = test system: SK-MEL-28 melanoma
KM12 colon = test system: KM12 colon
HCT-116 colon = test system: HCT-116 colon
NCI-H23 lung = test system: NCI-H23 lung
OVCAR-8 ovarian = test system: OVCAR-8 ovarian
SF-539 CNS = test system: SF-539 CNS
IGROV1 ovarian = test system: IGROV1 ovarian
HT29 colon = test system: HT29 colon
LOX IMVI melanoma = test system: LOX IMVI melanoma
HL-60(TB) leukemia = test system: HL-60(TB) leukemia
CCRF-CEM leukemia = test system: CCRF-CEM leukemia
MOLT-4 leukemia = test system: MOLT-4 leukemia
SR leukemia = test system: SR leukemia
RXF 393 renal = test system: RXF 393 renal
SW-620 colon = test system: SW-620 colon

CC(C)(C)c1cc(COc2cc(COc3ccc(-c4c5c(nc6c4CCc4ccc(-c7c8ccccc8nc8ccccc78)cc4-6)-c4cc(-c6c7ccccc7nc7ccccc67)ccc4CC5)cc3)cc(OCc3cc(C(C)(C)C)cc(C(C)(C)C)c3)c2)cc(C(C)(C)C)c1
TGI (TK-10 renal): > 100 µM | TGI (A549 NSCLC): > 100 µM | TGI (SNB-75 CNS): > 100 µM | TGI (HOP-92 NSCLC): > 100 µM | TGI (COLO 205 colon): > 100 µM | TGI (SK-MEL-2 melanoma): > 100 µM | TGI (NCI/ADR-RES ovarian): > 100 µM | TGI (DU-145 prostate): > 100 µM | TGI (UACC-257 melanoma): > 100 µM | TGI (ACHN renal): > 100 µM | TGI (SF-295 CNS): > 100 µM | TGI (NCI-H522 lung): > 100 µM | TGI (MDA-N): > 100 µM | TGI (SNB-19 CNS): > 100 µM | TGI (MDA-MB-435): > 100 µM | TGI (SF-268 CNS): > 100 µM | TGI (M14 melanoma): > 100 µM | TGI (NCI-H460 lung): > 100 µM | TGI (UACC-62 melanoma): > 100 µM | TGI (OVCAR-5 ovarian): > 100 µM | TGI (SK-OV-3 ovarian): > 100 µM | TGI (K-562 leukemia): > 100 µM | TGI (OVCAR-3 ovarian): > 100 µM | TGI (HOP-62 NSCLC): > 100 µM | TGI (UO-31 renal): > 100 µM | TGI (U251 CNS): > 100 µM | TGI (A498 renal): > 100 µM | TGI (CAKI-1 renal): > 100 µM | TGI (RPMI-8226 leukemia): > 100 µM | TGI (NCI-H226 lung): > 100 µM | TGI (MALME-3M melanoma): > 100 µM | TGI (HCC-2998 colon): > 100 µM | TGI (MCF7 breast): > 100 µM | TGI (OVCAR-4 ovarian): > 100 µM | TGI (MDA-MB-231 breast): > 100 µM | TGI (786-0 renal): > 100 µM | TGI (PC-3 prostate): > 100 µM | TGI (HCT-15 colon): > 100 µM | TGI (SN12C renal): > 100 µM | TGI (BT-549 breast): > 100 µM | TGI (SK-MEL-5 melanoma): > 100 µM | TGI (EKVX NSCLC): > 100 µM | TGI (T-47D breast): > 100 µM | TGI (SK-MEL-28 melanoma): > 100 µM | TGI (KM12 colon): > 100 µM | TGI (HCT-116 colon): > 100 µM | TGI (NCI-H23 lung): > 100 µM

NCc1ccc(O)c(O)c1
TGI (A549 NSCLC): > 100 µM | TGI (SNB-75 CNS): > 100 µM | TGI (HOP-92 NSCLC): > 100 µM | TGI (COLO 205 colon): > 100 µM | TGI (SK-MEL-2 melanoma): > 100 µM | TGI (NCI/ADR-RES ovarian): > 100 µM | TGI (DU-145 prostate): > 100 µM | TGI (UACC-257 melanoma): > 100 µM | TGI (ACHN renal): > 100 µM | TGI (SF-295 CNS): > 100 µM | TGI (OVCAR-8 ovarian): > 100 µM | TGI (MDA-N): > 100 µM | TGI (SNB-19 CNS): > 100 µM | TGI (MDA-MB-435): > 100 µM | TGI (M14 melanoma): > 100 µM | TGI (NCI-H460 lung): > 100 µM | TGI (SF-539 CNS): > 100 µM | TGI (UACC-62 melanoma): > 100 µM | TGI (OVCAR-5 ovarian): > 100 µM | TGI (SK-OV-3 ovarian): > 100 µM | TGI (K-562 leukemia): > 100 µM | TGI (OVCAR-3 ovarian): > 100 µM | TGI (IGROV1 ovarian): > 100 µM | TGI (HT29 colon): > 100 µM | TGI (HOP-62 NSCLC): > 100 µM | TGI (LOX IMVI melanoma): > 100 µM | TGI (UO-31 renal): > 100 µM | TGI (U251 CNS): > 100 µM | TGI (A498 renal): > 100 µM | TGI (CAKI-1 renal): > 100 µM | TGI (RPMI-8226 leukemia): > 100 µM | TGI (HL-60(TB) leukemia): 41 µM | TGI (NCI-H226 lung): > 100 µM | TGI (CCRF-CEM leukemia): > 100 µM | TGI (HCC-2998 colon): > 100 µM | TGI (MOLT-4 leukemia): > 100 µM | TGI (MCF7 breast): > 100 µM | TGI (OVCAR-4 ovarian): > 100 µM | TGI (MDA-MB-231 breast): > 100 µM | TGI (786-0 renal): > 100 µM | TGI (SR leukemia): > 100 µM | TGI (PC-3 prostate): > 100 µM | TGI (HCT-15 colon): > 100 µM | TGI (RXF 393 renal): > 100 µM | TGI (SN12C renal): > 100 µM | TGI (BT-549 breast): > 100 µM | TGI (SW-620 colon): > 100 µM | TGI (SK-MEL-5 melanoma): > 100 µM | TGI (EKVX NSCLC): > 100 µM | TGI (T-47D breast): > 100 µM | TGI (SK-MEL-28 melanoma): > 100 µM | TGI (KM12 colon): > 100 µM | TGI (HCT-116 colon): > 100 µM | TGI (NCI-H23 lung): > 100 µM

CCN(C(=O)N[C@@H](Cc1ccccc1)C(=O)N[C@@H](CC(C)C)C(=O)NC)c1ccccc1
TGI (TK-10 renal): > 100 µM | TGI (A549 NSCLC): > 100 µM | TGI (SNB-75 CNS): > 100 µM | TGI (HOP-92 NSCLC): > 100 µM | TGI (COLO 205 colon): > 100 µM | TGI (SK-MEL-2 melanoma): > 100 µM | TGI (NCI/ADR-RES ovarian): > 100 µM | TGI (DU-145 prostate): > 100 µM | TGI (UACC-257 melanoma): > 100 µM | TGI (ACHN renal): > 100 µM | TGI (SF-295 CNS): > 100 µM | TGI (NCI-H522 lung): > 100 µM | TGI (OVCAR-8 ovarian): > 100 µM | TGI (MDA-N): > 100 µM | TGI (SNB-19 CNS): > 100 µM | TGI (MDA-MB-435): > 100 µM | TGI (M14 melanoma): > 100 µM | TGI (NCI-H460 lung): > 100 µM | TGI (SF-539 CNS): > 100 µM | TGI (UACC-62 melanoma): > 100 µM | TGI (OVCAR-5 ovarian): > 100 µM | TGI (SK-OV-3 ovarian): > 100 µM | TGI (K-562 leukemia): > 100 µM | TGI (OVCAR-3 ovarian): > 100 µM | TGI (IGROV1 ovarian): > 100 µM | TGI (HT29 colon): > 100 µM | TGI (HOP-62 NSCLC): > 100 µM | TGI (LOX IMVI melanoma): > 100 µM | TGI (UO-31 renal): > 100 µM | TGI (U251 CNS): > 100 µM | TGI (CAKI-1 renal): > 100 µM | TGI (RPMI-8226 leukemia): > 100 µM | TGI (NCI-H226 lung): > 100 µM | TGI (MALME-3M melanoma): > 100 µM | TGI (CCRF-CEM leukemia): > 100 µM | TGI (HCC-2998 colon): > 100 µM | TGI (MOLT-4 leukemia): > 100 µM | TGI (MCF7 breast): > 100 µM | TGI (OVCAR-4 ovarian): > 100 µM | TGI (MDA-MB-231 breast): > 100 µM | TGI (786-0 renal): > 100 µM | TGI (PC-3 prostate): > 100 µM | TGI (HCT-15 colon): > 100 µM | TGI (RXF 393 renal): > 100 µM | TGI (SN12C renal): > 100 µM | TGI (BT-549 breast): > 100 µM | TGI (SW-620 colon): > 100 µM | TGI (SK-MEL-5 melanoma): > 100 µM | TGI (EKVX NSCLC): > 100 µM | TGI (T-47D breast): > 100 µM | TGI (SK-MEL-28 melanoma): > 100 µM | TGI (KM12 colon): > 100 µM | TGI (HCT-116 colon): > 100 µM | TGI (NCI-H23 lung): > 100 µM

Reference: PubChem BioAssay (NCI)
